Legend:
Format in all cases: biochemical
[1] = target: T1, PI3Kβ (Homo sapiens, UniProt P42338); test: PI3 Kinase HTRF assay, PI3Kβ; conditions: 10 μM PIP2, 10 μM ATP; read-out: PI3K β IC50
T1 construct: purchased Millipore Corporation 14-603-K
Source text: (§1) A PI3 Kinase HTRF® assay kit (cat No. 33-016) purchased from Millipore Corporation was used to screen compounds disclosed herein. This assay used specific, high affinity binding of the GRP1 pleckstrin homology (PH) domain to PIP3, the product of a Class 1A or 1B PI3 Kinase acting on its physiological substrate PIP2. During the detection phase of the assay, a complex was generated between the GST-tagged PH domain and biotinylated short chain PIP3. The biotinylated PIP3 and the GST-tagged PH domain recruited fluorophores (Streptavidin-Allophycocyanin and Europium-labeled anti-GST respectively) to form the fluorescence resonance energy transfer (FRET) architecture, generating a stable time-resolved FRET signal. The FRET complex was disrupted in a competitive manner by non-biotinylated PIP3, a product formed in the PI3 Kinase assay.
(§2) PI3 Kinase α, β, γ and δ activity was assayed using the PI3 Kinase HTRF® assay kit (catalogue No. 33-016) purchased from Millipore Corporation. Purified recombinant PI3Kα (catalogue No. 14-602-K), PI3Kβ (catalogue No. 14-603-K), PI3Kγ (catalogue No. 14-558-K) and PI3Kδ (catalogue No. 14-604-K) were obtained from Millipore Corporation. Purified recombinant PI3K enzyme was used to catalyze the phosphorylation of phosphatidylinositol 4,5-bisphosphate (PIP2 at 10 μM) to phosphatidylinositol 3,4,5-trisphosphate (PIP3) in the presence of 10 μM ATP. The assay was carried out in 384-well format and detected using a Perkin Elmer En Vision Xcite Multilabel Reader. Emission ratios were converted into percent inhibitions and imported into GraphPad Prism software. The concentration necessary to achieve inhibition of enzyme activity by 50% (IC50) was calculated using concentrations ranging from 20 μM to 0.1 nM (12-point curve). IC50 values were determined using a nonlinear regression model available in GraphPad Prism 5. […]

[2] = target: T2, PI3Kδ (Homo sapiens, UniProt O00329); test: PI3 Kinase HTRF assay, PI3Kδ; conditions: 10 μM PIP2, 10 μM ATP; read-out: PI3K δ IC50
T2 construct: purchased Millipore Corporation 14-604-K
Source text: as §1, §2

[3] = target: T3, PI3Kα (Homo sapiens, UniProt P42336); test: PI3 Kinase HTRF assay, PI3Kα; conditions: 10 μM PIP2, 10 μM ATP; read-out: PI3K α IC50
T3 construct: purchased Millipore Corporation 14-602-K
Source text: as §1, §2

[4] = target: T4, PI3Kγ (Homo sapiens, UniProt P48736); test: PI3 Kinase HTRF assay, PI3Kγ; conditions: 10 μM PIP2, 10 μM ATP; read-out: PI3K γ IC50
T4 construct: purchased Millipore Corporation 14-558-K
Source text: as §1, §2

T2 sequence (O00329 whole entry): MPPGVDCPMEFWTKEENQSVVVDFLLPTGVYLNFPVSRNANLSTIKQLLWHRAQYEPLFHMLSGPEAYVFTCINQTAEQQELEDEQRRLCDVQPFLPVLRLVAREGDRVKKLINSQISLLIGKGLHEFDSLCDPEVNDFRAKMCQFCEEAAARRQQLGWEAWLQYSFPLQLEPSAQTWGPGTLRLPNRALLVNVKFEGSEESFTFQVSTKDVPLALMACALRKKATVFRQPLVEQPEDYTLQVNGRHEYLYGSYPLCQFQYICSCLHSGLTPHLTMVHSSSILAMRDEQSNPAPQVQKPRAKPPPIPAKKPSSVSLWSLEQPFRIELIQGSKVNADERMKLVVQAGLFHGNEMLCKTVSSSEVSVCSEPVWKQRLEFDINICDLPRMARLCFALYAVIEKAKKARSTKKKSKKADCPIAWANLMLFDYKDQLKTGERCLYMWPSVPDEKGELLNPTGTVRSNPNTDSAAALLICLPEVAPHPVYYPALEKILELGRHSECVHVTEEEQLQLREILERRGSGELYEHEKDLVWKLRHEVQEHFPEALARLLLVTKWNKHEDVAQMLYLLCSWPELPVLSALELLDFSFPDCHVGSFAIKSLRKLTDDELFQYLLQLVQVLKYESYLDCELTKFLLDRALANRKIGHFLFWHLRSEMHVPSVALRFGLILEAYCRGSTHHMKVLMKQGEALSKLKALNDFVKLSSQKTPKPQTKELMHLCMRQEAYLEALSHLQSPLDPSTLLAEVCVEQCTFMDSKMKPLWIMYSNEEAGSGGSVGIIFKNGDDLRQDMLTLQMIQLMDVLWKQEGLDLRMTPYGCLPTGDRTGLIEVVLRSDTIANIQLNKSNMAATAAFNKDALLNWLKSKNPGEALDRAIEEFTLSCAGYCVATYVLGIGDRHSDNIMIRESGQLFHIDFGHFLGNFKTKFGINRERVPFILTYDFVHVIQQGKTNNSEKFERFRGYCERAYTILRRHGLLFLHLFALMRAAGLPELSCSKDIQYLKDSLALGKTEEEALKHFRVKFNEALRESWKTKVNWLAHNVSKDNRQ
T2 sequence (P27986 whole entry partner): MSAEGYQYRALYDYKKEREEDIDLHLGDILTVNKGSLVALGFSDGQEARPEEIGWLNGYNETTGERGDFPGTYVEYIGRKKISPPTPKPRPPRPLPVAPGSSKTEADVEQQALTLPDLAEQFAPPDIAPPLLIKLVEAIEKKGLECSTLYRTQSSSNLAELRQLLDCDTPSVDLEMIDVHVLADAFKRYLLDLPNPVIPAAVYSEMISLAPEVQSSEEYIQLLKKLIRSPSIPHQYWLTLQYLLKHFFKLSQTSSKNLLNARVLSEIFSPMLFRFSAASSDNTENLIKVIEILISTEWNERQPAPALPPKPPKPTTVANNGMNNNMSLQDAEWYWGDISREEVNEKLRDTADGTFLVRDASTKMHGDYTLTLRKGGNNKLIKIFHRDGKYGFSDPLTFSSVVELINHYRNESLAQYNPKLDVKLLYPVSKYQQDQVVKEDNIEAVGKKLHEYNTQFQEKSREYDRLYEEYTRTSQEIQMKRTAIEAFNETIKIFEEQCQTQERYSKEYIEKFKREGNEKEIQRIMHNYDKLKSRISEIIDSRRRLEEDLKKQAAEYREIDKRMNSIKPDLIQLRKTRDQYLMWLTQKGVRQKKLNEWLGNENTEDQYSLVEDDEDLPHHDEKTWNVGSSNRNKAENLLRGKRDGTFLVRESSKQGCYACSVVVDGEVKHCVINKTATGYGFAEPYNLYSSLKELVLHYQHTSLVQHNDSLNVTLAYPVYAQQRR
T3 sequence (P42336 whole entry): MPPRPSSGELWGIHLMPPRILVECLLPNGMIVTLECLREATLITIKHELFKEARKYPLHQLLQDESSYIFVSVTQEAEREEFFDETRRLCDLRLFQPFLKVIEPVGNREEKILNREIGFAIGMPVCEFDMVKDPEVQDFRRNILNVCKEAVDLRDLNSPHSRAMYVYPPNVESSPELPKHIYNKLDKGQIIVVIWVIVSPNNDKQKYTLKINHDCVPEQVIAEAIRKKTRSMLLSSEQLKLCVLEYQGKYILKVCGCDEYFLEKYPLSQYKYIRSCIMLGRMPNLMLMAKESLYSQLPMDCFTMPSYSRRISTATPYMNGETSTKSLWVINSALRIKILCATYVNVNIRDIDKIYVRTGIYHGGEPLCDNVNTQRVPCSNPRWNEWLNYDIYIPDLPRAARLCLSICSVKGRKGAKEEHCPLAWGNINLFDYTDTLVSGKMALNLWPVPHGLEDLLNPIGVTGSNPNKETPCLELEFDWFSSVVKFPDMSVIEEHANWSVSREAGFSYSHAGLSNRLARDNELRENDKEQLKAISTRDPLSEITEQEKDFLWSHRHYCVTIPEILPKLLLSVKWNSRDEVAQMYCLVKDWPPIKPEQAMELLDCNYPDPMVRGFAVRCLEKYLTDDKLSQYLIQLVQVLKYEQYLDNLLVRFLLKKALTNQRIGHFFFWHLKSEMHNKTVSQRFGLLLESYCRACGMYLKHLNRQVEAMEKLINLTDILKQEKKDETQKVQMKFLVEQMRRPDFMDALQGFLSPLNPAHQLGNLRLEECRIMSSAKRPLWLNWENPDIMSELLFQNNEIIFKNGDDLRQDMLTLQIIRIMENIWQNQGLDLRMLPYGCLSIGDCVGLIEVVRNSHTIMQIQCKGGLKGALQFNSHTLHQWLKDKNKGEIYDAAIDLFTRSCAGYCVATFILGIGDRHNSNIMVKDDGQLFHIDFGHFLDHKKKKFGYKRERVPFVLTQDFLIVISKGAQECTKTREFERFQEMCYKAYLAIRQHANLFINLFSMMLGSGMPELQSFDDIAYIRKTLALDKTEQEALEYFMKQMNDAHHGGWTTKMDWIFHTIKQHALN
T3 sequence (P27986 whole entry partner): as the sequence (P27986 whole entry partner) above
T1 sequence (P42338 whole entry): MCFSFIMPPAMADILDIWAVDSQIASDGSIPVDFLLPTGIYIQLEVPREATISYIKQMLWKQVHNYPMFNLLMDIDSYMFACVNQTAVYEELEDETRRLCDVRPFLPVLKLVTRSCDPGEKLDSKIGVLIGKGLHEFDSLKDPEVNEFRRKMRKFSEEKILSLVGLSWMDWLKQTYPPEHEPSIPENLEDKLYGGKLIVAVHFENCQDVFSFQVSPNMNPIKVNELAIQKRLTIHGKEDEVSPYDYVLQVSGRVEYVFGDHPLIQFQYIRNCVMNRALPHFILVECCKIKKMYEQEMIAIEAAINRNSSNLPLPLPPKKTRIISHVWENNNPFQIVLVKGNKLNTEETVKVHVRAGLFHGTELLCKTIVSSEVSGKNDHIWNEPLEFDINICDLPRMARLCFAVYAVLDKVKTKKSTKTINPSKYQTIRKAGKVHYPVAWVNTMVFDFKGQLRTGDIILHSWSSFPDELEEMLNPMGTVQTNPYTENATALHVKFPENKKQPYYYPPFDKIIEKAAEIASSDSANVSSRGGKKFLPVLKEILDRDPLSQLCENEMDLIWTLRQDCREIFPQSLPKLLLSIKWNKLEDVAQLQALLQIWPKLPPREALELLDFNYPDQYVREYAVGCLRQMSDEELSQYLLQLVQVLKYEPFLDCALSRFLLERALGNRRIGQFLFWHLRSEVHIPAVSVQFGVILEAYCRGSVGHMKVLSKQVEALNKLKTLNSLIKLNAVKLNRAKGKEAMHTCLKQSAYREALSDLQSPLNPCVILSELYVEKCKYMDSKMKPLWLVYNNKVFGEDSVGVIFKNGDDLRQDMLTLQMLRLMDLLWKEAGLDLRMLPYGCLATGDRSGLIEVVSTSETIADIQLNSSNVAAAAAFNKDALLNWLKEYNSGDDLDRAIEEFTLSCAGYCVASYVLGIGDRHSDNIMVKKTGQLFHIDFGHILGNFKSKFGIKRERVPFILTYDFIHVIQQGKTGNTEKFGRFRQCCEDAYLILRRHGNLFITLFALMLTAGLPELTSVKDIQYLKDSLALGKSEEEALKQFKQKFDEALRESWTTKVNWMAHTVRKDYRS
T1 sequence (P27986 whole entry partner): as the sequence (P27986 whole entry partner) above
T4 sequence (P48736 whole entry): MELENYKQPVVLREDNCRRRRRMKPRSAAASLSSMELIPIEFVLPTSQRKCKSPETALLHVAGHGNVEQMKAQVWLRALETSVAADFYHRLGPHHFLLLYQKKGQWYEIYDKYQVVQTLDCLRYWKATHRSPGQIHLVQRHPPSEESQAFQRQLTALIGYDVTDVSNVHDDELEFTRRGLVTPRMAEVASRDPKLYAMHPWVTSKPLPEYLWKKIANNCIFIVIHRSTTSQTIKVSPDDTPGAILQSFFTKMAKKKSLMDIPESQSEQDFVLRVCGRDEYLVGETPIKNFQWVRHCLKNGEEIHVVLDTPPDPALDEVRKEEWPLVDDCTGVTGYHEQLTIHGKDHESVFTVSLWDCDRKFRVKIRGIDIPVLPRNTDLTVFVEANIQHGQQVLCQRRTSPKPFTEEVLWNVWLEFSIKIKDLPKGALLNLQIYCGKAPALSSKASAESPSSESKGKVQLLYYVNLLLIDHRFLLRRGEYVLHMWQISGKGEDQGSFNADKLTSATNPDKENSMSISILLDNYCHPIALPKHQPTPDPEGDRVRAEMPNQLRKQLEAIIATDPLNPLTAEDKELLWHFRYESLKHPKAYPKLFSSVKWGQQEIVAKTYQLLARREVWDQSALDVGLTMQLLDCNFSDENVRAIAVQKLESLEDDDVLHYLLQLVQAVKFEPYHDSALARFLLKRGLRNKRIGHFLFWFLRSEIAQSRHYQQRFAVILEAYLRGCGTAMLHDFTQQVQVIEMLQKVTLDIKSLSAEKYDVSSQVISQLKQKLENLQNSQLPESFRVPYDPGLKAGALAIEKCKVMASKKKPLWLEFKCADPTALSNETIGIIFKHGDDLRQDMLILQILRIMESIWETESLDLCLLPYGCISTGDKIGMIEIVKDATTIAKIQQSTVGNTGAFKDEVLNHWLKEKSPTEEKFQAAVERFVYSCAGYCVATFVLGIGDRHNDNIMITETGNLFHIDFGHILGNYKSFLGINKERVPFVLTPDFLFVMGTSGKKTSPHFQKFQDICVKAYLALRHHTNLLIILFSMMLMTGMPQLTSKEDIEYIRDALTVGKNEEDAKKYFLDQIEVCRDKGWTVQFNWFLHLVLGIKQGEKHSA

| SMILES | IC50 [1] | IC50 [2] | IC50 [3] | IC50 [4] |
| --- | --- | --- | --- | --- |
| Cc1nc([C@H](C)Nc2ncnc3[nH]cnc23)cc2cccc(-c3cccnc3)c12 [Compound 170] | > 10 µM | < 0.1 µM | > 10 µM | < 10 µM |
| C[C@H](Nc1ccnc2ccnn12)c1cc2cccc(Cl)c2c(OC2CCN(S(C)(=O)=O)CC2)n1 [Compound 174] | < 10 µM | < 1 µM | > 10 µM | > 10 µM |
| C[C@H](Nc1ncnc2scnc12)c1cc2cccc(Cl)c2c(C(=O)NC2CCN(C)CC2)n1 [Compound 210] | > 10 µM | < 0.1 µM | > 10 µM | > 10 µM |
| C[C@H](Nc1ncnc2cccnc12)c1cc2cccc(Cl)c2c(C(=O)N(C)C)n1 [Compound 224] | < 10 µM | < 10 µM | > 10 µM | < 1 µM |
| C[C@H](Nc1ncnc2scnc12)c1cc2cccc(Cl)c2c(C(=O)NC2CCNCC2)n1 [Compound 209] | > 10 µM | < 0.1 µM | < 10 µM | > 10 µM |
| CC1CN(C(=O)c2nc([C@H](C)Nc3ncnc4scnc34)cc3cccc(Cl)c23)CCO1 (stereo partly shown) [Compound 221] | > 10 µM | < 0.1 µM | > 10 µM | < 1 µM |
| C[C@H](Nc1ncnc2[nH]cnc12)c1cc2cccc(Cl)c2c(C(=O)N(C)C2CCOCC2)n1 [Compound 126] | > 10 µM | < 1 µM | > 10 µM | < 10 µM |
| Cc1nc(-c2nc([C@H](C)Nc3ncnc4[nH]cnc34)cc3cccc(Cl)c23)no1 [Compound 32] | < 10 µM | < 1 µM | > 10 µM | < 10 µM |
| C[C@H](Nc1ncnc2[nH]cnc12)c1cc2cccc(-c3cnn(C)c3)c2c(C(=O)N2C3CCC2COC3)n1 [Compound 201] | > 10 µM | < 0.1 µM | > 10 µM | < 1 µM |
| C[C@H](Nc1ncnc2cccnc12)c1cc2cccc(-c3cnn(C)c3)c2c(C(=O)N2C3CCC2COC3)n1 [Compound 200] | > 10 µM | < 1 µM | > 10 µM | > 10 µM |

Other lines, results leading:

| IC50 [1] | IC50 [2] | IC50 [3] | IC50 [4] | SMILES |
| --- | --- | --- | --- | --- |
| < 10 µM | < 0.1 µM | < 10 µM | < 1 µM | COCCN(C)C(=O)c1nc([C@H](C)Nc2ncnc3scnc23)cc2cccc(Cl)c12 [Compound 249] |
| > 10 µM | < 1 µM | > 10 µM | < 10 µM | COCCN(C)C(=O)c1nc([C@H](C)Nc2ncnc3cccnc23)cc2cccc(Cl)c12 [Compound 244] |
| > 10 µM | < 1 µM | > 10 µM | < 10 µM | Cc1cccc2cc([C@H](C)Nc3ncnc4[nH]cnc34)nc(C(=O)N3CCOCC3)c12 [Compound 147] |
| < 10 µM | < 1 µM | < 10 µM | < 10 µM | C[C@H](Nc1ncnc2scnc12)c1cc2cccc(Cl)c2c(C(=O)N2CCOC[C@H]2C)n1 [Compound 246] |
| > 10 µM | < 1 µM | > 10 µM | < 10 µM | C[C@H](Nc1ncnc2[nH]cnc12)c1cc2cccc(Cl)c2c(CC(=O)N2CCOCC2)n1 [Compound 35] |
| > 10 µM | < 10 µM | > 10 µM | < 1 µM | C[C@H](Nc1ncnc2[nH]cnc12)c1cc2cccc(Cl)c2c(OCC(=O)O)n1 [Compound 128, (S)-2-(3-(1-(9H-purin-6-ylamino)ethyl)-8-chloroisoquinolin-1-yloxy)acetic acid] |
| < 1 µM | < 0.1 µM | < 10 µM | < 10 µM | C[C@H](Nc1ncnc2scnc12)c1cc2cccc(Cl)c2c(C(=O)N2CCCCC2)n1 [Compound 229] |
| > 10 µM | < 1 µM | < 10 µM | < 10 µM | C[C@H](Nc1ncnc2cccnc12)c1cc2cccc(-c3cnn(C)c3)c2c(OCCN2CCCC2)n1 [Compound 148] |
| < 10 µM | < 1 µM | > 10 µM | > 10 µM | C[C@H](Nc1ncnc2[nH]cnc12)c1cc2cccc(-c3cnn(C)c3)c2c(N2CCN(C)CC2)n1 [Compound 142] |

Reference: patent publication US8901133B2, “Heterocyclic compounds and uses thereof” (Infinity Pharmaceuticals, Inc., priority 2010, dated 2014)
